In brackets after ≈: the same amount, converted by molar mass. Like-named read-outs stand apart in the source and are kept apart here. Numbered stars: 1 amine (or outer) side, 2 acyl side, 3 side chain; on linkers, the order of the positions; unused ones are H or OH. Bridge positions count the residues as written; N and C are the ends. Square brackets hold non-standard residues; d marks the D form. Peptide text beside a SMILES is read from it. * marks the point of attachment. hTyr(3S-OH,4S-OH,3'-OSO3H) = N[C@H](C(=O)O)[C@H](O)[C@@H](O)c1ccc(O)c(OS(=O)(=O)O)c1; Orn(4R-OH,5R-OH) = O=C([C@H](C[C@@H](O)[C@@H](O)N[*:3])N[*:1])[*:2]; Pro(3S-OH,4S-Me) = C[C@H]1CN[C@H](C(=O)O)[C@H]1O; X1 = CCCCCOc1ccc(-c2cc(-c3ccc(C(=O)*)cc3)no2)cc1; Gln(3R-OH) = NC(=O)C[C@@H](O)[C@H](N)C(=O)O; Hyp = O=C(O)[C@@H]1C[C@@H](O)CN1
System: C. albicans isolates
Experiment: Broth microdilution susceptibility (CLSI M27-A3) at different medium pH
Assay type: cell-based, Candida albicans
Conditions: for MIC range: 50% inhibition, 10 vaginal isolates; for MIC50 / MIC90 / MIC: Candida albicans, 24 h
Experimental: Ten strains each of C. glabrata and C. albicans vaginal isolates were tested. The strains were obtained from recent clinical trial patients with vulvovaginal candidiasis (VVC) prior to treatment. Candida strains were obtained from the Mycology Reference Library (MRL) at Case Western Reserve University School of Medicine, Ohio, United States.
Susceptibility testing was performed using a broth microdilution method, according to CLSI M27-A3 guidelines (CLSI. 2008. Reference Method for Broth Dilution Antifungal Susceptibility Testing of Yeasts; Approved Standard—Third Edition. Clinical and Laboratory Standards Institute, CLSI document M27-A3). Antifungals and concentrations tested were SCY-078 and micafungin (both at concentrations within the range of 0.015 to 8 μg/ml) and fluconazole (at concentrations within the range of 0.125 to 64 μg/ml). A 0.1-ml C. albicans and C. glabrata inoculum of 0.5-2.5×10^3 blastospores/ml in RPMI 1640 medium was added to each microdilution well. ATCC strains of Candida parapsilosis and Candida krusei QC isolates were also included concurrently to ensure quality control. Antifungal susceptibility testing was carried out for each isolate in RPMI 1640 at pH 7 (to mimic RPMI medium used in testing the susceptibility of yeast by the CLSI M-27A3 document), pH 5.7, and pH 4.5 (to mimic the pH of the vaginal cavity) by adjusting the pH of the media using NaOH or HCl. […] Agents Chemother., 43: 1383-1386 (1999).
[…] SCY-078 powder was manufactured by Avista, Laboratories, NC. Micafungin and fluconazole were sourced from LGM Pharma.

## CCCCCOc1ccc(-c2cc(-c3ccc(C(=O)N[C@H]4C[C@@H](O)[C@@H](O)NC(=O)[C@@H]5[C@@H](O)[C@@H](C)CN5C(=O)[C@H]([C@H](O)CC(N)=O)NC(=O)[C@H]([C@H](O)[C@@H](O)c5ccc(O)c(OS(=O)(=O)O)c5)NC(=O)[C@@H]5C[C@@H](O)CN5C(=O)[C@H]([C@@H](C)O)NC4=O)cc3)no2)cc1 [Micafungin, reference compound] (X1-[Orn(4R-OH,5R-OH)]T[Hyp][hTyr(3S-OH,4S-OH,3'-OSO3H)][Gln(3R-OH)][Pro(3S-OH,4S-Me)]; lactam 1-C)
pH 4.5, 24 h
  MIC range: 0.25 to 0.5 µg/mL
pH 5.72, 24 h
  MIC range: 0.063 to 1 µg/mL
pH 7.0, 24 h
  MIC range: 0.25 µg/mL (≈ 0.197 µM)
pH 4.5
  MIC50: 0.5 µg/mL (≈ 0.394 µM)
  MIC90: 0.5 µg/mL (≈ 0.394 µM)
pH 4.5, read-out: MIC (50% inhibition), C. albicans MRL 34366, pH 4.5, 24 hours
  MIC: 0.5 µg/mL (≈ 0.394 µM)
pH 4.5, read-out: MIC (50% inhibition), C. albicans MRL 34367, pH 4.5, 24 hours
  MIC: 0.5 µg/mL (≈ 0.394 µM)
pH 4.5, read-out: MIC (50% inhibition), C. albicans MRL 34372, pH 4.5, 24 hours
  MIC: 0.5 µg/mL (≈ 0.394 µM)
pH 4.5, read-out: MIC (50% inhibition), C. albicans MRL 34373, pH 4.5, 24 hours
  MIC: 0.5 µg/mL (≈ 0.394 µM)
pH 4.5, read-out: MIC (50% inhibition), C. albicans MRL 34374, pH 4.5, 24 hours
  MIC: 0.5 µg/mL (≈ 0.394 µM)
pH 4.5, read-out: MIC (50% inhibition), C. albicans MRL 34385, pH 4.5, 24 hours
  MIC: 0.5 µg/mL (≈ 0.394 µM)
pH 4.5, read-out: MIC (50% inhibition), C. albicans MRL 34389, pH 4.5, 24 hours
  MIC: 0.5 µg/mL (≈ 0.394 µM)
pH 4.5, read-out: MIC (50% inhibition), C. albicans MRL 34399, pH 4.5, 24 hours
  MIC: 0.5 µg/mL (≈ 0.394 µM)
pH 4.5, read-out: MIC (50% inhibition), C. albicans MRL 34408, pH 4.5, 24 hours
  MIC: 0.25 µg/mL (≈ 0.197 µM)
pH 4.5, read-out: MIC (50% inhibition), C. albicans MRL 34449, pH 4.5, 24 hours
  MIC: 0.5 µg/mL (≈ 0.394 µM)
pH 5.72
  MIC50: 1 µg/mL (≈ 0.787 µM)
  MIC90: 1 µg/mL (≈ 0.787 µM)
pH 5.72, read-out: MIC (50% inhibition), C. albicans MRL 34366, pH 5.72, 24 hours
  MIC: 0.5 µg/mL (≈ 0.394 µM)
pH 5.72, read-out: MIC (50% inhibition), C. albicans MRL 34367, pH 5.72, 24 hours
  MIC: 0.5 µg/mL (≈ 0.394 µM)
pH 5.72, read-out: MIC (50% inhibition), C. albicans MRL 34372, pH 5.72, 24 hours
  MIC: 1 µg/mL (≈ 0.787 µM)
pH 5.72, read-out: MIC (50% inhibition), C. albicans MRL 34373, pH 5.72, 24 hours
  MIC: 1 µg/mL (≈ 0.787 µM)
pH 5.72, read-out: MIC (50% inhibition), C. albicans MRL 34374, pH 5.72, 24 hours
  MIC: 1 µg/mL (≈ 0.787 µM)
pH 5.72, read-out: MIC (50% inhibition), C. albicans MRL 34385, pH 5.72, 24 hours
  MIC: 1 µg/mL (≈ 0.787 µM)
pH 5.72, read-out: MIC (50% inhibition), C. albicans MRL 34389, pH 5.72, 24 hours
  MIC: 1 µg/mL (≈ 0.787 µM)
pH 5.72, read-out: MIC (50% inhibition), C. albicans MRL 34399, pH 5.72, 24 hours
  MIC: 1 µg/mL (≈ 0.787 µM)
pH 5.72, read-out: MIC (50% inhibition), C. albicans MRL 34408, pH 5.72, 24 hours
  MIC: 0.063 µg/mL (≈ 0.0496 µM)
pH 5.72, read-out: MIC (50% inhibition), C. albicans MRL 34449, pH 5.72, 24 hours
  MIC: 0.25 µg/mL (≈ 0.197 µM)
pH 7
  MIC50: 0.25 µg/mL (≈ 0.197 µM)
  MIC90: 0.25 µg/mL (≈ 0.197 µM)
pH 7, read-out: MIC (50% inhibition), C. albicans MRL 34366, pH 7.0, 24 hours
  MIC: 0.25 µg/mL (≈ 0.197 µM)
pH 7, read-out: MIC (50% inhibition), C. albicans MRL 34367, pH 7.0, 24 hours
  MIC: 0.25 µg/mL (≈ 0.197 µM)
pH 7, read-out: MIC (50% inhibition), C. albicans MRL 34372, pH 7.0, 24 hours
  MIC: 0.25 µg/mL (≈ 0.197 µM)
pH 7, read-out: MIC (50% inhibition), C. albicans MRL 34373, pH 7.0, 24 hours
  MIC: 0.25 µg/mL (≈ 0.197 µM)
pH 7, read-out: MIC (50% inhibition), C. albicans MRL 34374, pH 7.0, 24 hours
  MIC: 0.25 µg/mL (≈ 0.197 µM)
pH 7, read-out: MIC (50% inhibition), C. albicans MRL 34385, pH 7.0, 24 hours
  MIC: 0.25 µg/mL (≈ 0.197 µM)
pH 7, read-out: MIC (50% inhibition), C. albicans MRL 34389, pH 7.0, 24 hours
  MIC: 0.25 µg/mL (≈ 0.197 µM)
pH 7, read-out: MIC (50% inhibition), C. albicans MRL 34399, pH 7.0, 24 hours
  MIC: 0.25 µg/mL (≈ 0.197 µM)
pH 7, read-out: MIC (50% inhibition), C. albicans MRL 34408, pH 7.0, 24 hours
  MIC: 0.25 µg/mL (≈ 0.197 µM)
pH 7, read-out: MIC (50% inhibition), C. albicans MRL 34449, pH 7.0, 24 hours
  MIC: 0.25 µg/mL (≈ 0.197 µM)

From patent US20260000656A1, “ANTIFUNGAL AGENTS WITH ENHANCED ACTIVITY IN ACIDIC PH” (Scynexis, Inc., priority 2017, published 2026)
